Measurements: patent publication US20260262643A1, “HERBICIDAL BENZOXAZINES” (FMC CORPORATION, priority 2022, published 2026)

What was measured:
[1] = system: corn; assay: Test A preemergence; type: in vivo, Zea mays; settings: 125 g ai/ha, visual injury after 10 days, 0 to 100 scale, 0 is no effect, 100 is complete control
Description: (§1) Seeds of plant species selected from barnyardgrass (Echinochloa crusgalli), blackgrass (Alopecurus myosuroides), corn (Zea mays), foxtail, giant (giant foxtail, Setaria faberi), goosegrass (Eleusine indica), kochia (Bassia scoparia), oat, wild (wild oat, Avena fatua), pigweed, palmer (palmer amaranth, palmer pigweed, Amaranthus palmeri), Pigweed, Redroot (redroot pigweed, Amaranthus retroflexus), ragweed (common ragweed, Ambrosia artemisiifolia), ryegrass, Italian (italian ryegrass, Lolium multiflorum), soybean (Glycine max), and wheat (Triticum aestivum) were planted into a blend of loam soil and sand and treated preemergence with a directed soil spray using test chemicals formulated in a non-phytotoxic solvent mixture which included a surfactant. At the same time, plants selected from these crops and weed species and also galium (catchweed bedstraw, Galium aparine) and horseweed (Erigeron canadensis) were planted in pots containing the same blend of loam soil and sand and treated with postemergence applications of test chemicals formulated in the same manner. Plants ranged in height from 2 to 10 cm and were in the one- to two-leaf stage for the postemergence treatment. Treated plants and untreated controls were maintained in a greenhouse for 10 days, after which time all treated plants were compared to untreated controls and visually evaluated for injury. Plant response ratings, summarized in Table A, are based on a 0 to 100 scale where 0 is no effect and 100 is complete control. A dash (-) response means no test result.

[2] = system: foxtail, giant; assay: Test A postemergence; type: in vivo, Setaria faberi; settings: 0 to 100 scale; for Plant response rating, Foxtail, Giant: 1000 g ai/ha, Postemergence
Description: as §1

[3] = system: kochia; assay: Test A postemergence; type: in vivo, Bassia scoparia; settings: 0 to 100 scale; for Plant response rating, Kochia: 1000 g ai/ha, Postemergence
Description: as §1

[4] = system: blackgrass; assay: Test A preemergence; type: in vivo, Alopecurus myosuroides
Description: as §1

[5] = system: foxtail, giant; assay: Test A preemergence; type: in vivo, Setaria faberi
Description: as §1

[6] = system: oat, wild; assay: Test A preemergence; type: in vivo, Avena fatua; settings: 125 g ai/ha, visual injury after 10 days, 0 to 100 scale, 0 is no effect, 100 is complete control
Description: as §1

[7] = system: kochia; assay: Test A preemergence; type: in vivo, Bassia scoparia
Description: as §1

[8] = system: corn; assay: Test A postemergence; type: in vivo, Zea mays; settings: 125 g ai/ha, postemergence, 10 days; 0 to 100 scale, 0 no effect, 100 complete control
Description: as §1

[9] = system: wheat; assay: Test A postemergence; type: in vivo, Triticum aestivum; settings: 125 g ai/ha, postemergence, 10 days; 0 to 100 scale, 0 no effect, 100 complete control
Description: as §1

[10] = system: ragweed; assay: Test A preemergence; type: in vivo, Ambrosia artemisiifolia
Description: as §1

[11] = system: ryegrass, Italian; assay: Test A preemergence; type: in vivo, Lolium multiflorum
Description: as §1

[12] = system: horseweed; assay: Test A postemergence; type: in vivo, Erigeron canadensis; settings: 0 to 100 scale; for Plant response rating, Horseweed: 1000 g ai/ha, Postemergence
Description: as §1

[13] = system: oat, wild; assay: Test A postemergence; type: in vivo, Avena fatua; settings: 125 g ai/ha, postemergence, 10 days; 0 to 100 scale, 0 no effect, 100 complete control
Description: as §1

[14] = system: pigweed, palmer; assay: Test A preemergence; type: in vivo, Amaranthus palmeri
Description: as §1

[15] = system: wheat; assay: Test A preemergence; type: in vivo, Triticum aestivum; settings: 125 g ai/ha, visual injury after 10 days, 0 to 100 scale, 0 is no effect, 100 is complete control
Description: as §1

[16] = system: ragweed; assay: Test A postemergence; type: in vivo, Ambrosia artemisiifolia; settings: 0 to 100 scale; for Plant response rating, Ragweed: 1000 g ai/ha, Postemergence
Description: as §1

[17] = system: ryegrass, Italian; assay: Test A postemergence; type: in vivo, Lolium multiflorum; settings: 0 to 100 scale; for Plant response rating, Ryegrass, Italian: 1000 g ai/ha, Postemergence
Description: as §1

[18] = system: pigweed, palmer; assay: Test A postemergence; type: in vivo, Amaranthus palmeri; settings: 0 to 100 scale; for Plant response rating, Pigweed, Palmer: 1000 g ai/ha, Postemergence
Description: as §1

[19] = system: goosegrass; assay: Test A postemergence; type: in vivo, Eleusine indica; settings: 0 to 100 scale; for Plant response rating, Goosegrass: 1000 g ai/ha, Postemergence
Description: as §1

[20] = system: blackgrass; assay: Test A postemergence; type: in vivo, Alopecurus myosuroides; settings: 0 to 100 scale; for Plant response rating, Blackgrass: 1000 g ai/ha, Postemergence
Description: as §1

[21] = system: goosegrass; assay: Test A preemergence; type: in vivo, Eleusine indica
Description: as §1

[22] = system: soybean; assay: Test A postemergence; type: in vivo, Glycine max; settings: 125 g ai/ha, postemergence, 10 days; 0 to 100 scale, 0 no effect, 100 complete control
Description: as §1

[23] = system: soybean; assay: Test A preemergence; type: in vivo, Glycine max; settings: 125 g ai/ha, visual injury after 10 days, 0 to 100 scale, 0 is no effect, 100 is complete control
Description: as §1

[24] = system: rice; assay: Test B flooded paddy test; type: in vivo, Oryza sativa; settings: 250 g ai/ha, Flood, 13 days, 0 to 100 scale (0 no effect, 100 complete control)
Protocol: (§2) Plant species in the flooded paddy test selected from barnyardgrass (Echinochloa crus-galli), ducksalad (Heteranthera limosa), rice (Oryza sativa), and sedge, umbrella (small-flower umbrella sedge, Cyperus difformis) were grown to the 2-leaf stage for testing. At time of treatment, test pots were flooded to 3 cm above the soil surface, treated by application of test compounds directly to the paddy water, and then maintained at that water depth for the duration of the test. Treated plants and controls were maintained in a greenhouse for 13 days, after which time all species were compared to controls and visually evaluated. Plant response ratings, summarized in Table B, are based on a scale of 0 to 100 where 0 is no effect and 100 is complete control. A dash (-) response means no test result.

[25] = system: galium; assay: Test A postemergence; type: in vivo, Galium aparine; settings: 1000 g ai/ha, Postemergence; 0 to 100 scale
Description: as §1

[26] = system: sedge, umbrella; assay: Test B flooded paddy test; type: in vivo, Cyperus difformis; settings: 250 g ai/ha, Flood, 13 days, 0 to 100 scale (0 no effect, 100 complete control)
Protocol: as §2

[27] = system: barnyardgrass; assay: Test B flooded paddy test; type: in vivo, Echinochloa crus-galli; settings: 250 g ai/ha, Flood, 13 days, 0 to 100 scale (0 no effect, 100 complete control)
Protocol: as §2

[28] = system: ducksalad; assay: Test B flooded paddy test; type: in vivo, Heteranthera limosa; settings: 250 g ai/ha, Flood, 13 days, 0 to 100 scale (0 no effect, 100 complete control)
Protocol: as §2

[29] = 125 g ai/ha, postemergence, 10 days, 0 no effect, 100 complete control
[30] = 125 g ai/ha, visual injury after 10 days, 0 to 100 scale, 0 is no effect, 100 is complete control
[31] = 1000 g ai/ha, 0 to 100 scale (0 no effect, 100 complete control), 10 days

CCC(C)c1ncn(-c2cccc(C(=O)N3C[C@H](C)Oc4c(C)cccc43)c2)n1 (stereo partly drawn) [Compound 87]
Plant response rating, Corn [1]: 10
Foxtail, Giant plant response rating [2, 29]: 10
Kochia plant response rating [3, 29]: 70
Plant response rating, Blackgrass [4, 30]: 40
Plant response rating, Foxtail, Giant [5, 30]: 50
Plant response rating, Oat, Wild [6]: 20
Plant response rating, Kochia [7, 30]: 30
Corn plant response rating [8]: 10
Wheat plant response rating [9]: 10
Plant response rating, Ragweed [10, 30]: 0
Plant response rating, Ryegrass, Italian [11, 30]: 100
Horseweed plant response rating [12, 29]: 0
Oat, Wild plant response rating [13]: 20
Plant response rating, Pigweed, Palmer [14, 30]: 30
Plant response rating, Wheat [15]: 0
Ragweed plant response rating [16, 29]: 50
Ryegrass, Italian plant response rating [17, 29]: 10
Pigweed, Palmer plant response rating [18, 29]: 30
Goosegrass plant response rating [19, 29]: 30
Blackgrass plant response rating [20, 29]: 10
Plant response rating, Goosegrass [21, 30]: 80
Soybean plant response rating [22]: 40
Plant response rating, Soybean [23]: 0

COc1cccc2c1OC(C)CN2C(=O)c1cccc(-n2cncn2)c1 (stereo not drawn) [Compound 41]
Plant response rating, Rice [24]: 0
Plant response rating, Galium [25]: 70
Plant response rating, Foxtail, Giant [2]: 60
Plant response rating, Sedge, Umbrella [26]: 55
Plant response rating, Kochia [3]: 20
Plant response rating, Blackgrass [4, 31]: 30
Plant response rating, Foxtail, Giant [5, 31]: 90
Plant response rating, Kochia [7, 31]: 0
Plant response rating, Barnyardgrass [27]: 0
Plant response rating, Ducksalad [28]: 50
Plant response rating, Ragweed [10, 31]: 0
Plant response rating, Ryegrass, Italian [11, 31]: 70
Plant response rating, Horseweed [12]: 0
Plant response rating, Pigweed, Palmer [14, 31]: 30
Plant response rating, Ragweed [16]: 0
Plant response rating, Ryegrass, Italian [17]: 60
Plant response rating, Pigweed, Palmer [18]: 20
Plant response rating, Goosegrass [19]: 0
Plant response rating, Blackgrass [20]: 50
Plant response rating, Goosegrass [21, 31]: 90

O=C(c1ccnc(-n2cncn2)c1)N1CC(CF)Oc2c(Cl)cccc21 (stereo not drawn) [Compound 36]
Plant response rating, Galium [25]: 90
Plant response rating, Foxtail, Giant [2]: 90
Plant response rating, Kochia [3]: 60
Plant response rating, Blackgrass [4, 31]: 70
Plant response rating, Foxtail, Giant [5, 31]: 100
Plant response rating, Kochia [7, 31]: 20
Plant response rating, Ragweed [10, 31]: 30
Plant response rating, Ryegrass, Italian [11, 31]: 50
Plant response rating, Horseweed [12]: 0
Plant response rating, Pigweed, Palmer [14, 31]: 40
Plant response rating, Ragweed [16]: 60
Plant response rating, Ryegrass, Italian [17]: 40
Plant response rating, Pigweed, Palmer [18]: 60
Plant response rating, Goosegrass [19]: 30
Plant response rating, Blackgrass [20]: 60
Plant response rating, Goosegrass [21, 31]: 90

Cc1noc(-c2cccc(C(=O)N3C[C@H](C)Oc4c(Cl)cccc43)c2)n1 [Compound 121]
Plant response rating, Galium [25]: 80
Plant response rating, Foxtail, Giant [2]: 20
Plant response rating, Kochia [3]: 70
Plant response rating, Blackgrass [4, 31]: 0
Plant response rating, Foxtail, Giant [5, 31]: 60
Plant response rating, Kochia [7, 31]: 0
Plant response rating, Ragweed [10, 31]: 0
Plant response rating, Ryegrass, Italian [11, 31]: 0
Plant response rating, Horseweed [12]: 0
Plant response rating, Pigweed, Palmer [14, 31]: 60
Plant response rating, Ragweed [16]: 0
Plant response rating, Ryegrass, Italian [17]: 0
Plant response rating, Pigweed, Palmer [18]: 50
Plant response rating, Goosegrass [19]: 0
Plant response rating, Blackgrass [20]: 0
Plant response rating, Goosegrass [21, 31]: 0
